The target of assay [1] is human 5-HT2AR (Homo sapiens, UniProt P28223). Nature of the assay: Radioligand binding assay, [3H]-Ketanserin displacement. To be noted: read-out: Ki 5-HT2A; HEK293 cell membranes, 1.0 nM [3H]-Ketanserin, 37 °C 1 h.
In assay [2] the target is human 5-HT6R (Homo sapiens, UniProt P50406). Nature of the assay: Radioligand binding assay, [3H]-LSD displacement. To be noted: read-out: Ki 5-HT6; HEK293 cell membranes, 2 nM [3H]-LSD, 37 °C 1 h.
Assay [3] has as its target human 5-HT7bR (Homo sapiens, UniProt P34969). The assay is described as follows: Radioligand binding assay, [3H]-5-CT displacement. To be noted: read-out: Ki 5-HT7; HEK293 cell membranes, 0.6 nM [3H]-5-CT, 37 °C 1 h.
For assay [4], the target named is 5-HT1AR. To be noted: affinity toward 5-HT1AR; cited from earlier work.

Results on 2 compounds are retold here after publication PMC5361891 (Journal of chemical information and modeling, 2017).

Usually Ki stands for a measure of affinity in units of concentration, obtained from inhibition or displacement.

Sequence of human 5-HT6R (P50406 whole entry): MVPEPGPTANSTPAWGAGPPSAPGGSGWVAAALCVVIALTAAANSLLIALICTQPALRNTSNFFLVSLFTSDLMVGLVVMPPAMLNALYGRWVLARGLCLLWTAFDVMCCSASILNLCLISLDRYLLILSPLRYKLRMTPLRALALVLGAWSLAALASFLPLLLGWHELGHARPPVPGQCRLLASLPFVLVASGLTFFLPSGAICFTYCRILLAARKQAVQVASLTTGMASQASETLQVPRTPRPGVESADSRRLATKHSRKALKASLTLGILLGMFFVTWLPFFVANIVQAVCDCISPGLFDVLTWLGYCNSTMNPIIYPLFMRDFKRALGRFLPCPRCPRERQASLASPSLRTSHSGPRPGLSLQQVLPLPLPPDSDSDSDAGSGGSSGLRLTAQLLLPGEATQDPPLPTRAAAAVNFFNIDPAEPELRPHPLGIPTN
Sequence of human 5-HT2AR (P28223 whole entry): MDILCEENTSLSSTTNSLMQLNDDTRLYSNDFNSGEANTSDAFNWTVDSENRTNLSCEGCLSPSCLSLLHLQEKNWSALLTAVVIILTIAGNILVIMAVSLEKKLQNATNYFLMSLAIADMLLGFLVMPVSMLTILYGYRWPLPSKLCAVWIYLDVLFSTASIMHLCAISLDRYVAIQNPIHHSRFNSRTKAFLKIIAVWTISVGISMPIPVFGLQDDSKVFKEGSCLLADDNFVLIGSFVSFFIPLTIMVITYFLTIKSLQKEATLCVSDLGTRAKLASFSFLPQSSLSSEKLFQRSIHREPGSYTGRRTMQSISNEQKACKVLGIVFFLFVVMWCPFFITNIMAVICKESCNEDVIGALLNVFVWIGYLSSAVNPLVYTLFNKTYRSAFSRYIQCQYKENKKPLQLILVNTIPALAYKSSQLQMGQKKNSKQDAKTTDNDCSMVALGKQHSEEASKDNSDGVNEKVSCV
Sequence of human 5-HT7bR (P34969 1-432 limits assumed): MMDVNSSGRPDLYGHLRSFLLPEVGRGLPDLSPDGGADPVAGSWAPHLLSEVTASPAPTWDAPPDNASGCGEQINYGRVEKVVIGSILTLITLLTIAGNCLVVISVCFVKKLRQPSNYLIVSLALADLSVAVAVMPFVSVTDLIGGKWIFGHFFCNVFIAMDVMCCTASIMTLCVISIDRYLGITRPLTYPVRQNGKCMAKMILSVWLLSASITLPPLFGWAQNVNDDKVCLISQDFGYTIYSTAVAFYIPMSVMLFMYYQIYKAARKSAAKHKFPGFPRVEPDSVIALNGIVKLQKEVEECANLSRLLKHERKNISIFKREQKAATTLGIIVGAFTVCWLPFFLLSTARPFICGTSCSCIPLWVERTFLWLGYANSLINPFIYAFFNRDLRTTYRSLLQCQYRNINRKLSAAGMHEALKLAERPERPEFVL

As for `COC(=O)c1ccc(C2c3c(-c4ccccc4O)n[nH]c3C(=O)N2Cc2ccncc2)cc1` (stereo not shown) [D174-0581], the Ki in assay [1] amounted to 3.75 µM; in assay [2], 13.5 µM; in assay [3], 6.48 µM.

With `COc1ccccc1N1CCN(CCCCNC(=O)C23CC4CC(C2)C(C4)C3)CC1` [NBUMP, 4-[4-(1-noradamantanecarboxamido)butyl]-1-(2-methoxyphenyl)piperazine], the inhibition constant Ki in assay [4] was 0.0001 µM.
